According to patent US11607446B2, “Personalized immunotherapy against several neuronal and brain tumors” (Immatics Biotechnologies GmbH, priority 2013, dated 2023):

Test system: CD8+ T cells
Assay: In vitro immunogenicity of HLA-A*24 class I peptides: in vitro T-cell priming with aAPCs loaded with peptide/MHC complexes and anti-CD28 antibody, pMHC multimer readout
Assay type: cell-based, human
Conditions: given as a class symbol; for Donors: share of positive donors in the in vitro immunogenicity experiments; for Wells: share of positive wells in the in vitro immunogenicity experiments
Experimental: In order to obtain information regarding the immunogenicity of the TUMAPs of the present invention, we performed investigations using an in vitro T-cell priming assay based on repeated stimulations of CD8+ T cells with artificial antigen presenting cells (aAPCs) loaded with peptide/MHC complexes and anti-CD28 antibody.
Isolated CD8+ lymphocytes or PBMCs were incubated until use in T-cell medium (TCM) consisting of RPMI-Glutamax (Invitrogen, Karlsruhe, Germany) supplemented with 10% heat inactivated human AB serum (PAN-Biotech, Aidenbach, Germany), 100 U/ml Penicillin/100 μg/ml Streptomycin (Cambrex, Cologne, Germany), 1 mM sodium pyruvate (CC Pro, Oberdorla, Germany), 20 μg/ml Gentamycin (Cambrex). 2.5 ng/ml IL-7 (PromoCell, Heidelberg, Germany) and 10 U/ml IL-2 (Novartis Pharma, Nurnberg, Germany) were also added to the TCM at this step. Generation of pMHC/anti-CD28 coated beads, T-cell stimulations and readout was performed in a highly defined in vitro system using four different pMHC molecules per stimulation condition and 8 different pMHC molecules per readout condition. All pMHC complexes used for aAPC loading and cytometric readout were derived from UV-induced MHC ligand exchange with minor modifications. In order to determine the amount of pMHC monomer obtained by exchange we performed streptavidin-based sandwich ELISAs according to (Rodenko et al., 2006). The purified co-stimulatory mouse IgG2a anti human CD28 Ab 9.3 (Jung et al., 1987) was chemically biotinylated using Sulfo-N-hydroxysuccinimidobiotin as recommended by the manufacturer (Perbio, Bonn, Germany). Beads used were 5.6 μm diameter streptavidin coated polystyrene particles (Bangs Laboratories, Illinois, USA).
800.000 beads/200 μl were coated in 96-well plates in the presence of 4×12.5 ng different biotin-pMHC, washed and 600 ng biotin anti-CD28 were added subsequently in a volume of 200 μl. Stimulations were initiated in 96-well plates by co-incubating 1×10^6 CD8+ T cells with 2×10^5 washed coated beads in 200 μl TCM supplemented with 5 ng/ml IL-12 (PromoCell) for 3-4 days at 37° C. Half of the medium was then exchanged by fresh TCM supplemented with 80 U/ml IL-2 and incubating was continued for 3-4 days at 37° C. This stimulation cycle was performed for a total of three times, with 12 individual wells per condition For the pMHC multimer readout using 8 different pMHC molecules per condition, a two-dimensional combinatorial coding approach was used as previously described (Andersen et al., 2012) with minor modifications encompassing coupling to 5 different fluorochromes. Finally, multimeric analyses were performed by staining the cells with Live/dead near IR dye (Invitrogen, Karlsruhe, Germany), CD8-FITC antibody clone SK1 (BD, Heidelberg, Germany) and fluorescent pMHC multimers. For analysis, a BD LSRII SORP cytometer equipped with appropriate lasers and filters was used. Peptide specific cells were calculated as percentage of total CD8+ cells. Evaluation of multimeric analysis was done using the FlowJo software (Tree Star, Oregon, USA). In vitro priming of specific multimer+ CD8+ lymphocytes was detected by comparison to irrelevant control stimulations.
Exemplary flow cytometry results after TUMAP-specific multimer staining for two peptides of the invention are shown in FIG. 4 together with corresponding negative controls.

| Substance | Donors | Wells |
| --- | --- | --- |
| RYGPQFTL (listed as Homo sapiens) [PCD-002] | ++ (20%-49 % = ++) | + (<20% = +) |
| RYIPLIVDI (listed as Homo sapiens) [ARHGAP21-001] | ++ (20%-49 % = ++) | + (<20% = +) |
| RYLPSSVFL (listed as Homo sapiens) [ZNF749-001] | ++ (20%-49 % = ++) | + (<20% = +) |
| RYQESLGNTVF (listed as Homo sapiens) [PJA2-001] | ++ (20%-49 % = ++) | + (<20% = +) |
| RYSDGLLRF (listed as Homo sapiens) [LZTS1-001] | ++ (20%-49 % = ++) | + (<20% = +) |
| SYNPLWLRI (listed as Homo sapiens) [ASPM-002] | +++ (50%-70% = +++) | + (<20% = +) |
| TYIIKSVGF (listed as Homo sapiens) [UNKN-003] | ++ (20%-49 % = ++) | + (<20% = +) |
| TYIPPLLVAF (listed as Homo sapiens) [TMEM231-001] | +++ (50%-70% = +++) | + (<20% = +) |
| TYNYAVLKF (listed as Homo sapiens) [GPM-002] | +++ (50%-70% = +++) | + (<20% = +) |
| TYTSYLDKF (listed as Homo sapiens) [MAPK6-001] | ++ (20%-49 % = ++) | + (<20% = +) |
| TYVDSSHTI (listed as Homo sapiens) [VCAN-003] | +++ (50%-70% = +++) | + (<20% = +) |
| VLPDADTLLHF (listed as Homo sapiens) [APC-001] | ++ (20%-49 % = ++) | + (<20% = +) |
| VYDTMIEKF (listed as Homo sapiens) [PTP-016] | ++ (20%-49 % = ++) | + (<20% = +) |
| VYLKEANAI (listed as Homo sapiens) [KIF1B-001] | ++ (20%-49 % = ++) | + (<20% = +) |
| VYLTIKPLNL (listed as Homo sapiens) [EFCAB7-001] | ++ (20%-49 % = ++) | + (<20% = +) |
| VYNDIGKEMLL (listed as Homo sapiens) [KIF1B-002] | ++ (20%-49 % = ++) | + (<20% = +) |
| VYNLTQEFF (listed as Homo sapiens) [SMOX-001] | ++ (20%-49 % = ++) | + (<20% = +) |
| VYQVLQEHL (listed as Homo sapiens) [BMP7-001] | ++ (20%-49 % = ++) | + (<20% = +) |
| VYYFHPQYL (listed as Homo sapiens) [ST8SIA5-001] | ++++ (>70% = ++++) | ++ (20%-49 % = ++) |
| YYHFIFTTL (listed as Homo sapiens) [GRIK3-002] | ++++ (>70% = ++++) | + (<20% = +) |
| YYLDKSVSI (listed as Homo sapiens) [SCARA3-002] | ++ (20%-49 % = ++) | + (<20% = +) |
| YYPGVILGF (listed as Homo sapiens) [TMEM255A-001] | ++ (20%-49 % = ++) | + (<20% = +) |
| YYQIRSSQL (listed as Homo sapiens) [EXOC7-001] | ++ (20%-49 % = ++) | + (<20% = +) |
| YYTVRNFTL (listed as Homo sapiens) [PTP-014] | ++ (20%-49 % = ++) | + (<20% = +) |
| ZNFS3-001 (RYLPSSVFL; listed as Homo sapiens) | +++ (50%-70% = +++) | ++ (20%-49 % = ++) |
